Test results: the supplement of paper PMC8633005

Key:
Assay in all cases: drug sensitivity score (DSS) (DSS (unitless, 0-50 scale)); higher = more sensitive (stronger viability inhibition); extreme values may be limits of the assay
Conditions in all cases: 72 h; culture: 2D
FM-MEL-3 = system: FM-MEL-3
How it was run: (§1)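 Viability was measured by CellTiter-Glo luminescence after 72 h at 37 °C in 384-well plates holding a 527-compound oncology library, with patient-derived melanoma cultures (1000–1500 cells per well) and melanoma cell lines grown in 2D. Every compound was tested at five concentrations spanning a 10,000-fold range. The drug sensitivity score, a modified area under the curve, came from dose-response curves fitted with in-house Breeze software.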

Bowes = system: Bowes
How it was run: as §1

WM852 = system: WM852
How it was run: as §1

SK-MEL-2 = system: SK-MEL-2
How it was run: as §1

FM-MEL-6 = system: FM-MEL-6
How it was run: as §1

FM-MEL-2 = system: FM-MEL-2
How it was run: as §1

SK-MEL-28 = system: SK-MEL-28
How it was run: as §1

WM165 = system: WM165
How it was run: as §1

Compound: CC1(C)CCC(c2ccc(Cl)cc2)=C(CN2CCN(c3ccc(C(=O)NS(=O)(=O)c4ccc(N[C@H](CCN5CCOCC5)CSc5ccccc5)c(S(=O)(=O)C(F)(F)F)c4)cc3)CC2)C1 [Navitoclax]
- drug sensitivity score (FM-MEL-3): 12
- drug sensitivity score (Bowes): 0
- drug sensitivity score (WM852): 0
- drug sensitivity score (SK-MEL-2): 0
- drug sensitivity score (FM-MEL-6): 0
- drug sensitivity score (FM-MEL-2): 4
- drug sensitivity score (SK-MEL-28): 0
- drug sensitivity score (WM165): 0

Compound: CN1C(=O)N[C@H](Cc2c[nH]c3c(Cl)cccc23)C1=O [Necrostatin 2]
- drug sensitivity score (FM-MEL-3): 0
- drug sensitivity score (Bowes): 0
- drug sensitivity score (WM852): 0
- drug sensitivity score (SK-MEL-2): 0
- drug sensitivity score (FM-MEL-6): 0
- drug sensitivity score (FM-MEL-2): 0
- drug sensitivity score (SK-MEL-28): 0
- drug sensitivity score (WM165): 0

Compound: O=c1ncn2nc(Sc3ccc(F)cc3F)ccc2c1-c1c(Cl)cccc1Cl [Neflamapimod]
- drug sensitivity score (FM-MEL-3): 0.8
- drug sensitivity score (Bowes): 1.6
- drug sensitivity score (WM852): 0.1
- drug sensitivity score (SK-MEL-2): 0
- drug sensitivity score (FM-MEL-6): 0.2
- drug sensitivity score (FM-MEL-2): 0.1
- drug sensitivity score (SK-MEL-28): 0.1
- drug sensitivity score (WM165): 0.1

Compound: COc1nc(N)nc2c1ncn2[C@@H]1O[C@H](CO)[C@@H](O)[C@@H]1O [Nelarabine]
- drug sensitivity score (FM-MEL-3): 0
- drug sensitivity score (Bowes): 0
- drug sensitivity score (WM852): 0.6
- drug sensitivity score (SK-MEL-2): 0
- drug sensitivity score (FM-MEL-6): 0.1
- drug sensitivity score (FM-MEL-2): 0
- drug sensitivity score (SK-MEL-28): 0.1
- drug sensitivity score (WM165): 0

Compound: CCOc1cc2ncc(C#N)c(Nc3ccc(OCc4ccccn4)c(Cl)c3)c2cc1NC(=O)/C=C/CN(C)C [Neratinib]
- drug sensitivity score (FM-MEL-3): 3.2
- drug sensitivity score (Bowes): 3.2
- drug sensitivity score (WM852): 0.5
- drug sensitivity score (SK-MEL-2): 0.2
- drug sensitivity score (FM-MEL-6): 0.3
- drug sensitivity score (FM-MEL-2): 1
- drug sensitivity score (SK-MEL-28): 0
- drug sensitivity score (WM165): 4.9

Compound: CC1(C)NC(=O)N(c2ccc([N+](=O)[O-])c(C(F)(F)F)c2)C1=O [Nilutamide]
- drug sensitivity score (FM-MEL-3): 0.4
- drug sensitivity score (Bowes): 1.1
- drug sensitivity score (WM852): 0
- drug sensitivity score (SK-MEL-2): 0
- drug sensitivity score (FM-MEL-6): 0
- drug sensitivity score (FM-MEL-2): 0
- drug sensitivity score (SK-MEL-28): 0
- drug sensitivity score (WM165): 0

Compound: COC(=O)c1ccc2c(c1)NC(=O)/C2=C(\Nc1ccc(N(C)C(=O)CN2CCN(C)CC2)cc1)c1ccccc1 [Nintedanib]
- drug sensitivity score (FM-MEL-3): 1.8
- drug sensitivity score (Bowes): 6.5
- drug sensitivity score (WM852): 5.3
- drug sensitivity score (SK-MEL-2): 0
- drug sensitivity score (FM-MEL-6): 5.6
- drug sensitivity score (FM-MEL-2): 1.5
- drug sensitivity score (SK-MEL-28): 2.1
- drug sensitivity score (WM165): 0

Compound: NC(=O)c1cccc2cn(-c3ccc([C@@H]4CCCNC4)cc3)nc12 [Niraparib]
- drug sensitivity score (FM-MEL-3): 0
- drug sensitivity score (Bowes): 0
- drug sensitivity score (WM852): 0
- drug sensitivity score (SK-MEL-2): 0
- drug sensitivity score (FM-MEL-6): 0
- drug sensitivity score (FM-MEL-2): 1.4
- drug sensitivity score (SK-MEL-28): 0
- drug sensitivity score (WM165): 6.9

Compound: CC(O)c1cc(C(=O)N[C@@H](C)Cn2ccc(-c3ccc(C#N)c(Cl)c3)n2)n[nH]1 (some centres undefined) [ODM-201]
- drug sensitivity score (FM-MEL-3): 2.8
- drug sensitivity score (Bowes): 1.3
- drug sensitivity score (WM852): 0.2
- drug sensitivity score (SK-MEL-2): 0
- drug sensitivity score (FM-MEL-6): 1.1
- drug sensitivity score (FM-MEL-2): 0
- drug sensitivity score (SK-MEL-28): 0
- drug sensitivity score (WM165): 0

Compound: CC(=O)c1cnc2ccc(-c3cc(Cl)c(O)c(Cl)c3)nc2c1N[C@H]1CC[C@H](CN(C)C)CC1 [OTS167]
- drug sensitivity score (FM-MEL-3): 19
- drug sensitivity score (Bowes): 15.4
- drug sensitivity score (WM852): 10.5
- drug sensitivity score (SK-MEL-2): 11.4
- drug sensitivity score (FM-MEL-6): 8
- drug sensitivity score (FM-MEL-2): 9.5
- drug sensitivity score (SK-MEL-28): 14.3
- drug sensitivity score (WM165): 17.4

Compound: O=C(c1cc(Cc2n[nH]c(=O)c3ccccc23)ccc1F)N1CCN(C(=O)C2CC2)CC1 [Olaparib]
- drug sensitivity score (FM-MEL-3): 0
- drug sensitivity score (Bowes): 0.4
- drug sensitivity score (WM852): 3.9
- drug sensitivity score (SK-MEL-2): 0
- drug sensitivity score (FM-MEL-6): 0
- drug sensitivity score (FM-MEL-2): 0
- drug sensitivity score (SK-MEL-28): 1
- drug sensitivity score (WM165): 7.5

Compound: C=CC(=O)Nc1cccc(Oc2nc(Nc3ccc(N4CCN(C)CC4)cc3)nc3ccsc23)c1 [Olmutinib]
- drug sensitivity score (FM-MEL-3): 0
- drug sensitivity score (Bowes): 0.8
- drug sensitivity score (WM852): 0
- drug sensitivity score (SK-MEL-2): 0
- drug sensitivity score (FM-MEL-6): 0
- drug sensitivity score (FM-MEL-2): 0
- drug sensitivity score (SK-MEL-28): 0
- drug sensitivity score (WM165): 0

Compound: COC(=O)C[C@](O)(CCCC(C)(C)O)C(=O)O[C@@H]1C(OC)=C[C@]23CCCN2CCc2cc4c(cc2[C@H]13)OCO4 [Omacetaxine]
- drug sensitivity score (FM-MEL-3): 25.9
- drug sensitivity score (Bowes): 29.1
- drug sensitivity score (WM852): 26.1
- drug sensitivity score (SK-MEL-2): 18.2
- drug sensitivity score (FM-MEL-6): 28.5
- drug sensitivity score (FM-MEL-2): 20.4
- drug sensitivity score (SK-MEL-28): 22.4
- drug sensitivity score (WM165): 27.2

Compound: CC1(C)CC[C@]2(NC(=O)C(C)(F)F)CC[C@]3(C)[C@H](C(=O)C=C4[C@@]5(C)C=C(C#N)C(=O)C(C)(C)[C@@H]5CC[C@]43C)[C@@H]2C1 [Omaveloxolone]
- drug sensitivity score (FM-MEL-3): 17.4
- drug sensitivity score (Bowes): 18.2
- drug sensitivity score (WM852): 11.3
- drug sensitivity score (SK-MEL-2): 15.7
- drug sensitivity score (FM-MEL-6): 13.9
- drug sensitivity score (FM-MEL-2): 11.2
- drug sensitivity score (SK-MEL-28): 15.5
- drug sensitivity score (WM165): 20.3

Compound: CC(C)c1cc(C(=O)N2Cc3ccc(CN4CCN(C)CC4)cc3C2)c(O)cc1O [Onalespib]
- drug sensitivity score (FM-MEL-3): 14.2
- drug sensitivity score (Bowes): 13.3
- drug sensitivity score (WM852): 5.7
- drug sensitivity score (SK-MEL-2): 8
- drug sensitivity score (FM-MEL-6): 4.2
- drug sensitivity score (FM-MEL-2): 7.1
- drug sensitivity score (SK-MEL-28): 6.9
- drug sensitivity score (WM165): 15

Compound: COC[C@H](NC(=O)c1cnc(C)s1)C(=O)N[C@@H](COC)C(=O)N[C@@H](Cc1ccccc1)C(=O)[C@@]1(C)CO1 [Oprozomib]
- drug sensitivity score (FM-MEL-3): 20.3
- drug sensitivity score (Bowes): 20.3
- drug sensitivity score (WM852): 16.9
- drug sensitivity score (SK-MEL-2): 15.2
- drug sensitivity score (FM-MEL-6): 19.4
- drug sensitivity score (FM-MEL-2): 9.3
- drug sensitivity score (SK-MEL-28): 17
- drug sensitivity score (WM165): 20

Compound: CNC(=O)c1ccc2cc([C@@]3(O)CCn4cncc43)ccc2c1 [Orteronel]
- drug sensitivity score (FM-MEL-3): 0
- drug sensitivity score (Bowes): 0
- drug sensitivity score (WM852): 0
- drug sensitivity score (SK-MEL-2): 0
- drug sensitivity score (FM-MEL-6): 0
- drug sensitivity score (FM-MEL-2): 0
- drug sensitivity score (SK-MEL-28): 0
- drug sensitivity score (WM165): 0

Compound: C=CC(=O)Nc1cc(Nc2nccc(-c3cn(C)c4ccccc34)n2)c(OC)cc1N(C)CCN(C)C [Osimertinib]
- drug sensitivity score (FM-MEL-3): 2.7
- drug sensitivity score (Bowes): 2.7
- drug sensitivity score (WM852): 3.5
- drug sensitivity score (SK-MEL-2): 3.4
- drug sensitivity score (FM-MEL-6): 4.6
- drug sensitivity score (FM-MEL-2): 3.2
- drug sensitivity score (SK-MEL-28): 4
- drug sensitivity score (WM165): 4.3
